Laboratory results taken from patent US12679878B2, “CRF2 receptor agonists and their use in therapy” (SANOFI, priority 2020, dated 2026).
pEC50: −log10 of the molar value. Values after ≈ are worked out from the molar mass of the structure shown. Like-named read-outs stand apart in the source and are kept apart here. Starred links: 1 amine or outer side, 2 acyl side, 3 side chain; linkers in the order of their positions; H or OH if unused. Non-standard residues stand in square brackets, D forms with d. Residues, ends and D or L forms follow the SMILES beside them. Groups on a side chain read outwards from the residue. *: point of attachment. C16 diacid = O=C(O)CCCCCCCCCCCCCCC(=O)*; γGlu = O=C(O)[C@H](CCC(=O)[*:2])N[*:1]

What was measured:
[1] = Chemical stability as % loss by LC-UV, 28 days 40° C. vs 5° C. (Example 19.11); type: physicochemical
Method: As for example 15 above, also the chemical stability of representative examples of these FA modified peptides has been assessed, using LC-UV instead of light scattering. Solubility and chemical stability were studied in 100 mM phosphate buffer (pH 7.4) and 100 mM acetate buffer (pH 4.5). Test compound powders were dissolved in both buffers at a target concentration of 10 mg/mL and incubated for 1 hour at room temperature. After centrifugation at 2500 rcf for 15 minutes, […] of supernatant was diluted with […] of the incubation buffer and analyzed by LC-UV (Acquity UPLC-DAD, Waters). Solubility was calculated by comparing the peak area of the test compound in the buffer sample with the peak area of the same compound dissolved at 0.5 mg/ml in water:acetonitrile 1:1, 0.1% formic acid.
From the centrifuged supernatant, two additional […] aliquots were collected and diluted with […] of incubation buffer. One aliquot was stored at 5° C., while the other was stored at 40° C. After 28 days, the samples were analyzed by LC-UV. Chemical stability was calculated as % loss using the following equations: • Chemical stability (as % loss)=[(purity after 28 days at 5° C.)−(purity after 28 days at 40° C.)]×100/(purity after 28 days at 5° C.) % purity=[(peak area compound)×100/(total peak area)]

[2] = Buffer solubility by LC-UV, pH 7.4 phosphate and pH 4.5 acetate (Example 19.11); type: physicochemical; conditions: target 10 mg/mL
How it was run: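 Powders dissolved at a target 10 mg/mL in 100 mM phosphate pH 7.4 or 100 mM acetate pH 4.5, held 1 h at room temperature, then centrifuged. Diluted supernatant analysed by LC-UV; solubility from peak area against the same compound at 0.5 mg/ml in water:acetonitrile 1:1 with 0.1% formic acid.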

human CRF2α receptor = target: T1, human CRF2α receptor (Homo sapiens, UniProt Q13324); test: cAMP agonism at human CRF2α receptor in TeloHEAC cells, FA modified peptides (Example 19.9); type: cell-based; conditions: 0% HSA, relative to urocortin 2
T1 construct: expressed in transfected cells; host or cells: TeloHEAC
T1 sequence (Q13324 1-411): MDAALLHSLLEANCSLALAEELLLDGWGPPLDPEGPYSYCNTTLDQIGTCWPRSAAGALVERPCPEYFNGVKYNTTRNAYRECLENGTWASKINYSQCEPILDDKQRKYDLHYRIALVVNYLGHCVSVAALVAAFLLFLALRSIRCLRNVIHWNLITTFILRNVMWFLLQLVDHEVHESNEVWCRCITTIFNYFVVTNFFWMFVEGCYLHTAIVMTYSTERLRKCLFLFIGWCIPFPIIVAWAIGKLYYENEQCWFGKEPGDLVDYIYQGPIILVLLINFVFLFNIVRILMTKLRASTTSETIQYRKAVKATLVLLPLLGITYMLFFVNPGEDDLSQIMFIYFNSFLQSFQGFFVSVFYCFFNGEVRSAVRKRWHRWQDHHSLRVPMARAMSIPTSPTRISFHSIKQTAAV
How it was run: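 Efficacy and EC50 are referenced to 100 nM urocortin 2 as 100%, with cAMP measured as the 665/620 nm HTRF ratio after 1 h at room temperature. Compounds (0.5 mM DMSO stock, 16 twofold dilutions) acted 30 min at 37 °C on CRF2α-expressing TeloHEAC cells, buffer containing IBMX and 0% or 0.2% HSA.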

[3] = In vitro plasma stability, human plasma (Example 19.11); type: in vitro ADME; set-up: dose or concentration left out as unconfirmed; conditions: 37° C.
Method: (§1) In vitro plasma metabolic stability was studied in male Sprague Dawley rats and human. Test compound were incubated […] for 2 hours at 37° C. At each time point (0, 0.25, 1 and 2 h), samples were prepared for analysis by means of a single step protein precipitation technique by adding 150 μL of ethanol, 0.1% formic acid to 50 μL aliquots of plasma. Samples were mixed by vortex for homogeneity and then subjected to centrifugation at 14000 rpm for 15 min. The supernatant (100 μL) was collected, diluted with 100 μL of water, 0.1% formic acid and analyzed by LC-HRMS (TripleTOF 6600+, AB Sciex). For each test compound, the area ratios at each time point were compared to the 0 h area ratio and converted to a percentage remaining.

[4] = In vitro plasma stability, rat plasma (Example 19.11); type: in vitro ADME, Sprague Dawley rats; set-up: remaining at 2 h: dose or concentration left out as unconfirmed; conditions: male, Sprague Dawley, rat, plasma, 37° C.
Method: as §1

CRF1R receptor = target: T2, CRF1R receptor (Homo sapiens, UniProt P34998); test: cAMP activity at anti-target CRF1R, CHO-K1 cell line clone 2 (Example 19.10); type: cell-based; conditions: for EC50: 0% HSA, read-out: EC50 [nM] 0% HSA; for EC50 / Emax: CRF1R CHO-K1 clone 2; for Emax: 100% = Sauvagine at 100 nM; for CRF1/CRF2 ratio: ratio of CRF1 EC50 to CRF2 EC50
T2 construct: host or cells: CHO-K1 clone 2
T2 sequence (P34998 24-415): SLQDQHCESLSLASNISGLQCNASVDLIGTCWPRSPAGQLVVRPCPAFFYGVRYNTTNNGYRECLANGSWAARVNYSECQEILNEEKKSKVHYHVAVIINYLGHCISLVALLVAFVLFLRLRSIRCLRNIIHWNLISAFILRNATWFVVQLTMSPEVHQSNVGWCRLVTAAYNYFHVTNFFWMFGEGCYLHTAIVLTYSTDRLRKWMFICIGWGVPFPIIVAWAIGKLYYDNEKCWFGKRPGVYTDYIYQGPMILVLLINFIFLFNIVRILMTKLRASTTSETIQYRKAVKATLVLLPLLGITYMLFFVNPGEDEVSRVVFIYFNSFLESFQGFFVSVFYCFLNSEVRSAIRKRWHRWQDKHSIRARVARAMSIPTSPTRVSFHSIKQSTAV
How it was run: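 A CRF1R-overexpressing CHO-K1 line (clone 2) was grown in F12/10% FBS/G418 and frozen in aliquots before use. The cAMP assay followed the preceding procedure, with 100% activation defined by Sauvagine at 100 nM.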

[5] = pH 7.4, 100 mM phosphate buffer

Structure (SMILES)	% loss (chemical stability) ([1]; pH 4.5) [%]	% loss (chemical stability) ([1]; pH 7.4) [%]	solubility at 1 h ([2]; pH 4.5, 100 mM acetate buffer) [µg/mL]	solubility at 1 h [2, 5] [µg/mL]	EC50 (human CRF2α receptor) [nM]	remaining at 2 h [3] [%]	remaining at 2 h [4] [%]	EC50 (CRF1R receptor) [nM]	Emax (CRF1R receptor) [%]	pEC50 (CRF1R receptor; Table 20 side-to-side comparison, read-out: CRF1 EC50)	CRF1/CRF2 ratio (CRF1R receptor)
CC[C@H](C)[C@H](N)C(=O)N[C@H](C(=O)N[C@@H](CC(C)C)C(=O)N[C@@H](CO)C(=O)N[C@@H](CC(C)C)C(=O)N[C@@H](CC(=O)O)C(=O)N[C@@H](C(=O)N1CCC[C@H]1C(=O)N[C@H](C(=O)N[C@@H](CCCCN)C(=O)N[C@@H](CC(C)C)C(=O)N[C@@H](CCCCNC(=O)CC[C@H](NC(=O)CCCCCCCCCCCCCCC(=O)O)C(=O)O)C(=O)N[C@@H](CCC(N)=O)C(=O)N[C@H](C(=O)N[C@@H](CC(C)C)C(=O)N[C@@H](CC(C)C)C(=O)N[C@@H](CCCCN)C(=O)N[C@@H](CCC(N)=O)C(=O)N[C@@H](CCC(=O)O)C(=O)N[C@@H](CCCNC(=N)N)C(=O)N[C@@H](CCC(N)=O)C(=O)N[C@@H](CCCCN)C(=O)N[C@@H](CCCCN)C(=O)N[C@@H](CCC(N)=O)C(=O)N[C@@H](CCCNC(=N)N)C(=O)N[C@@H](CCC(=O)O)C(=O)N[C@@H](CCC(N)=O)C(=O)N[C@@H](C)C(=O)N[C@@H](CCC(=O)O)C(=O)N[C@@H](CCCCN)C(=O)N[C@@H](CC(N)=O)C(=O)N[C@@H](CCCCN)C(=O)N[C@@H](CCC(N)=O)C(=O)N[C@H](C(=O)N[C@@H](CC(C)C)C(=O)N[C@@H](CCC(=O)O)C(=O)N[C@@H](CCC(N)=O)C(=O)N[C@H](C(N)=O)C(C)C)[C@@H](C)CC)[C@@H](C)CC)[C@@H](C)CC)C(C)C)C(C)C [compound 190] (H-IVLSLD[dV]PIKLK([γGlu-C16 diacid])QILLKQERQKKQREQAEKNKQILEQV-NH2; N-terminus assumed)	0	35	8500 (≈ 1720 µM)	8500 (≈ 1720 µM)	2.47	100	92	> 100	12	< 7.00	>500
CC[C@H](C)[C@H](N)C(=O)N[C@H](C(=O)N[C@@H](CC(C)C)C(=O)N[C@@H](CO)C(=O)N[C@@H](CC(C)C)C(=O)N[C@@H](CC(=O)O)C(=O)N[C@@H](C(=O)N1CCC[C@H]1C(=O)N[C@H](C(=O)N[C@@H](CCCCN)C(=O)N[C@@H](CC(C)C)C(=O)N[C@@H](CCCCNC(=O)CC[C@H](NC(=O)CCCCCCCCCCCCCCC(=O)O)C(=O)O)C(=O)N[C@@H](CCC(N)=O)C(=O)N[C@H](C(=O)N[C@@H](CC(C)C)C(=O)N[C@@H](CC(C)C)C(=O)N[C@@H](CCCCN)C(=O)N[C@@H](CCC(N)=O)C(=O)N[C@@H](CCC(=O)O)C(=O)N[C@@H](CCCNC(=N)N)C(=O)N[C@@H](CCC(N)=O)C(=O)N[C@@H](CCCCN)C(=O)N[C@@H](CCCCN)C(=O)N[C@@H](CCC(N)=O)C(=O)N[C@@H](CCCNC(=N)N)C(=O)N[C@@H](CCC(=O)O)C(=O)N[C@@H](CCCCN)C(=O)N[C@@H](C)C(=O)N[C@@H](CCC(=O)O)C(=O)N[C@@H](CCCCN)C(=O)N[C@@H](CC(N)=O)C(=O)N[C@@H](CCCCN)C(=O)N[C@@H](CCC(N)=O)C(=O)N[C@H](C(=O)N[C@@H](CC(C)C)C(=O)N[C@@H](C)C(=O)N[C@@H](CCC(N)=O)C(=O)N[C@H](C(N)=O)C(C)C)[C@@H](C)CC)[C@@H](C)CC)[C@@H](C)CC)C(C)C)C(C)C [compound 191] (H-IVLSLD[dV]PIKLK([γGlu-C16 diacid])QILLKQERQKKQREKAEKNKQILAQV-NH2)	0	54	8500 (≈ 1740 µM)	9000 (≈ 1840 µM)	2.68	96	85	> 100	12.5		
CC[C@H](C)[C@H](N)C(=O)N[C@H](C(=O)N[C@@H](CC(C)C)C(=O)N[C@@H](CO)C(=O)N[C@@H](CC(C)C)C(=O)N[C@@H](CC(=O)O)C(=O)N[C@@H](C(=O)N1CCC[C@H]1C(=O)N[C@H](C(=O)N[C@@H](CCCCN)C(=O)N[C@@H](CC(C)C)C(=O)N[C@@H](CCCCNC(=O)CC[C@H](NC(=O)CCCCCCCCCCCCCCC(=O)O)C(=O)O)C(=O)N[C@@H](CCC(N)=O)C(=O)N[C@H](C(=O)N[C@@H](CC(C)C)C(=O)N[C@@H](CC(C)C)C(=O)N[C@@H](CCCCN)C(=O)N[C@@H](CCC(N)=O)C(=O)N[C@@H](CCC(=O)O)C(=O)N[C@@H](CCCNC(=N)N)C(=O)N[C@@H](CCC(N)=O)C(=O)N[C@@H](CCCCN)C(=O)N[C@@H](CCCCN)C(=O)N[C@@H](CCC(N)=O)C(=O)N[C@@H](CCCNC(=N)N)C(=O)N[C@@H](CCC(N)=O)C(=O)N[C@@H](CCC(N)=O)C(=O)N[C@@H](C)C(=O)N[C@@H](CCC(=O)O)C(=O)N[C@@H](CCCCN)C(=O)N[C@@H](CC(N)=O)C(=O)N[C@@H](CCCCN)C(=O)N[C@@H](CCC(N)=O)C(=O)N[C@H](C(=O)N[C@@H](CC(C)C)C(=O)N[C@@H](C)C(=O)N[C@@H](CCC(N)=O)C(=O)N[C@H](C(N)=O)C(C)C)[C@@H](C)CC)[C@@H](C)CC)[C@@H](C)CC)C(C)C)C(C)C [compound 192] (H-IVLSLD[dV]PIKLK([γGlu-C16 diacid])QILLKQERQKKQRQQAEKNKQILAQV-NH2; N-terminus assumed)	0	49	8400 (≈ 1720 µM)	7900 (≈ 1610 µM)	0.83	95	109				68
